Tests used:
[1] = biological target: T1, Alpha-2C adrenergic receptor (Rattus norvegicus, UniProt P22086)
T1 sequence (P22086 whole entry): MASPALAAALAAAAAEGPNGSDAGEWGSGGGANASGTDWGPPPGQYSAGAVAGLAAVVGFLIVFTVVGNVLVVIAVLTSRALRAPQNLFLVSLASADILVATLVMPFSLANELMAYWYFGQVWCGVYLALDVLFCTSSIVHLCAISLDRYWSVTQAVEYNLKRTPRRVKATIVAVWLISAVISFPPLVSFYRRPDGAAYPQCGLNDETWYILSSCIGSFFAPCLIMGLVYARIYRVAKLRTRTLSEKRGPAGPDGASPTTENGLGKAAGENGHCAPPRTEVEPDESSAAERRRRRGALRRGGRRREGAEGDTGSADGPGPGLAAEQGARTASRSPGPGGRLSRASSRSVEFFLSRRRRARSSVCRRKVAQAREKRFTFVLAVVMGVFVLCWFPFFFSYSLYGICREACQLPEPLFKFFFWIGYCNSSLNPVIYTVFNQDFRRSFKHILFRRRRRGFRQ

[2] = biological target: T2, 5-hydroxytryptamine receptor 1A (Rattus norvegicus, UniProt P19327)
T2 sequence (P19327 whole entry): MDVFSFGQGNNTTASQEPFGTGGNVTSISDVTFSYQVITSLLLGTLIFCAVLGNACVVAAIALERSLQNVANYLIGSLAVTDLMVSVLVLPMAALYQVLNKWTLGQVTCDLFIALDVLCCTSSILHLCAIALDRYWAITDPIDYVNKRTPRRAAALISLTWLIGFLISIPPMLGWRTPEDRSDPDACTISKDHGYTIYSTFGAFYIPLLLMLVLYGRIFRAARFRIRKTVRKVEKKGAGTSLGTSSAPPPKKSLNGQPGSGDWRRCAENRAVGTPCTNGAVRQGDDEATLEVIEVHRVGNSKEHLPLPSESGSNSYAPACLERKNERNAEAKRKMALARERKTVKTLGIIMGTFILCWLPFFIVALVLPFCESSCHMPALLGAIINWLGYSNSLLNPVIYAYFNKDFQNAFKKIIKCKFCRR

SMILES | Ki [1] [µM] | Ki [2] [µM]
O=C1NCN(c2ccccc2)C12CCN(CCCC(c1ccc(F)cc1)c1ccc(F)cc1)CC2 | 5 | 0.11
O=C1NCCN1CCN1CCC(c2cn(-c3ccc(F)cc3)c3ccc(Cl)cc23)CC1 [1-[2-[4-[5-chloro-1-(4-fluorophenyl)-indol-3-yl]-1-piperidyl]ethyl]imidazolidin-2-one] | 1.68 | –
O=C1NCN(c2ccccc2)C12CCN(CC1COc3ccccc3O1)CC2 (stereo not drawn) [8-(2,3-Dihydro-benzo[1,4]dioxin-2-ylmethyl)-1-phenyl-1,3,8-triaza-spiro[4.5]decan-4-one] | – | 0.00084
Cc1nc2n(c(=O)c1CCN1CCC(c3noc4cc(F)ccc34)CC1)CCCC2O (stereo not drawn) [9-OH-risperidone] | 0.017 | 0.38
NC(=O)C1(N2CCCCC2)CCN(CCCC(=O)c2ccc(F)cc2)CC1 [CAS_1893-33-0] | 0.68 | –
CN1CC2c3ccccc3Oc3ccc(Cl)cc3C2C1 (stereo not drawn) [NSC_163091] | 0.0037 | –

Source: BindingDB's records for doi:10.1007/bf02245606 (Janssen Research Foundation, 1996)
